{"source": "patent US20250270180A1", "about": "“MEK INHIBITORS AND THERAPEUTIC USES THEREOF” (Immuneering Corporation, priority 2020, published 2025)", "key": {"A549 pMEK:tMEK (CRAF)": {"test_system": "A549 pMEK:tMEK (CRAF)", "assay": "CRAF-bypass pMEK:tMEK, A549", "type": "cell-based", "procedure": "Materials and Methods: A549 or A375 cells were seeded in 6-well plates at an appropriate seeding density on day 0. On day 2 or 3, after checking the health and confluency of cells, the media was aspirated and replaced with 1 mL media containing a predetermined concentration of compound and incubated for 2 hours. After 2 hours, the media was aspirated, and the cells washed 2 times with cold PBS. Cells were lysed on ice, with 50 uL 1×CST lysis buffer+1 mM PMSF for 5 minutes. After 5 minutes, cells were removed using a scraper and transferred to cold 1.5 mL tubes, and centrifuged for 10 min, 4° C., 14,000×g. Supernatant was gently removed and snap frozen in liquid nitrogen. Protein concentration of the lysate was determined using Bradford Reagent (analyzed using SpectraMax M2E) and diluted to 1 mg/mL or pERK or 1.5 mg/mL for pMEK analysis. Cell lysates were then analyzed for phosphor-ERK/total-ERK levels on a Jess system (ProteinSimple; Cat #JS3346) using the following antibodies: tERK1/2 (CST 4696; 1:50) and pERK1/2 (CST 4377; 1:50). […]\nA549 or […] cells were treated in duplicate for two hours with compounds at varying concentrations. […] After storage, the lysate was quantified with the Bradford assay. Before the lysates were prepared to run on the Jess, the lysates were diluted to 1 mg/mL for pERK analysis and 1.5 mg/mL pMEK analysis using quantitative Western blotting. […]"}, "[1]": {"assay": "Metabolite ID study, rabbit hepatocytes", "type": "in vitro ADME", "details": "10 uM compound 9, T=60 min", "procedure": "(§1) Animal Studies: Compound 9 was tested using six species hepatocytes in a metabolite ID study (T=60 min).\n(§2) Cryopreserved hepatocytes from a selected species were thawed and incubated in duplicate with 10 uM compound 9 in Krebs-Henseleit buffer. […] Viability of hepatocytes was >70% after thawing.\n(§3) (Eppendorf 5804R). […] The disappearance of the parent compound was determined, and the formation of metabolites was evaluated. Metabolites present at >1% of total compound related material (based on peak area) were identified by interpretation of the LC-MS/MS data.\n(§4) MS settings were optimized for the flow rate. Full scan spectra were acquired in combination with data dependent MS2.\n(§5) The spectra obtained from all samples were screened for the presence of m/z values that are absent in the blank incubations (incubations with hepatocytes without compound and with vehicle control, and incubations of compound in buffer without hepatocytes). T=60 min incubations were used as an initial screening. All possible metabolites observed were semi-quantified by MS response (peak area). MS2 spectra were interpreted to determine possible location of the metabolism reaction. The presence of metabolites identified was compared across the selected species."}, "[2]": {"assay": "Metabolite ID study, monkey hepatocytes", "type": "in vitro ADME", "details": "10 uM compound 9, T=60 min", "procedure": "as §1, §2, §3, §4, §5"}, "[3]": {"assay": "Metabolite ID study, mouse hepatocytes", "type": "in vitro ADME", "details": "10 uM compound 9, T=60 min", "procedure": "as §1, §2, §3, §4, §5"}, "[4]": {"assay": "Mouse liver microsome stability (t1/2, Clint)", "type": "in vitro ADME", "details": "liver microsomes, pH 7.4, 0.5 mg/ml microsomal protein", "procedure": "(Eppendorf 5804R). […] The disappearance of the parent compound was determined."}, "[5]": {"assay": "Single dose PK profile (plasma and tumor) in Colon26 tumor bearing mice", "type": "in vivo", "details": "female, mouse", "procedure": "Female mice (either athymic BALC/c nude, or BALB/c mice) were inoculated with a single subcutaneous injection of 0.1 ml of mouse Colon-26 cell suspension (1×10^5 cells per animal) in the right flank region. Colon26 (C26) tumor bearing mice received a single dose (3-4 mice/treatment) of vehicle (10% DMSO/90% [20% SBE-B-CD in saline], pH 5) containing compounds at indicated dose by gavage (p.o.) or intravenous administration (i.v.) and at various time points (0.16, 0.5, 1, 2, 4, 8, 12, 16, 24-hour) post dose humanely euthanized. Blood was obtained through cardiac puncture into K+EDTA tubes, mixed by inversion and centrifuged to obtain the plasma. Tissues were excised, cleaned of surrounding tissues. All samples immediately snap frozen in liquid N2 prior to LC-MS/MS analysis (using Agilent Poroshell-120 EC-C18 (4.0 μm) 2.1×50 mm, and a Water+API-4000 Electrospray MS unit). The results of this study are illustrated in FIGS. 16, and 17. Tables 11 describes a single does PK profile (plasma) and Table 12 describes a single dose PK profile (tumor)."}, "hERG Channel": {"molecular_target": "hERG Channel (Homo sapiens, UniProt Q12809)", "sequence (Q12809 whole entry)": "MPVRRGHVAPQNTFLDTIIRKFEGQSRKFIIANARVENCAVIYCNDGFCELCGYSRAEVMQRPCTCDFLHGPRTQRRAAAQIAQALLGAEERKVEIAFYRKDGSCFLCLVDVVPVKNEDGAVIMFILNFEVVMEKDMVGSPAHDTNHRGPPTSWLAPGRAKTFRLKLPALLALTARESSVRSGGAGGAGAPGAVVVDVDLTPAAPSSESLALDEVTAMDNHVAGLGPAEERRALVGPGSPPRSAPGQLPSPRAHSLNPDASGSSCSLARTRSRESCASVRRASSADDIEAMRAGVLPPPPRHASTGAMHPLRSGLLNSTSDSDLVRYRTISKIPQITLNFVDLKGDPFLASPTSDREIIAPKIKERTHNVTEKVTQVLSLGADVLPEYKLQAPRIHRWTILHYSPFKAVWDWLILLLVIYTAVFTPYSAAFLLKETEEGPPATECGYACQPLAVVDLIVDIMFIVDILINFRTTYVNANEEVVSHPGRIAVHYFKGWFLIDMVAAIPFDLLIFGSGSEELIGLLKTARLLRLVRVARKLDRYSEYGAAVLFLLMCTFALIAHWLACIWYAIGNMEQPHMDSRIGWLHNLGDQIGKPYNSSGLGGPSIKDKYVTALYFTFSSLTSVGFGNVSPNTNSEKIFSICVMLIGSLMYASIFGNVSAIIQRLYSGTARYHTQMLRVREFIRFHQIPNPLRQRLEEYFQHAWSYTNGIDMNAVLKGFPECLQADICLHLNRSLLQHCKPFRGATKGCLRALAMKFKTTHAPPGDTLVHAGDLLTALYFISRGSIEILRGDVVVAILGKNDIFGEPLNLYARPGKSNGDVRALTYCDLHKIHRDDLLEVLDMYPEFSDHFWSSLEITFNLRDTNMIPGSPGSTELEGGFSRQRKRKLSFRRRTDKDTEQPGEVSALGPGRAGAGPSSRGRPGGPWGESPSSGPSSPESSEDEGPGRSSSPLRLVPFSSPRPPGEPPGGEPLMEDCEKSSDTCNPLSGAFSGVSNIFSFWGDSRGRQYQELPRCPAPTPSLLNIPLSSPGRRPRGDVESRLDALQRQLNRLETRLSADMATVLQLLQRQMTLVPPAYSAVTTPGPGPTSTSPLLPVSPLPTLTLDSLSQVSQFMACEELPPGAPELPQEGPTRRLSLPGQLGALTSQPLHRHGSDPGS", "assay": "in vitro"}, "[6]": {"assay": "Metabolite ID study, rat hepatocytes", "type": "in vitro ADME", "details": "10 uM compound 9, T=60 min", "procedure": "as §1, §2, §3, §4, §5"}, "[7]": {"test_system": "A549 (KRAS G12S) pERK: total ERK", "assay": "Phospho-ERK screen in A549 (KRAS G12S)", "type": "cell-based", "details": "10 μM for 2 hours", "procedure": "Materials and Methods: A549 or A375 cells were seeded in 6-well plates at an appropriate seeding density on day 0. On day 2 or 3, after checking the health and confluency of cells, the media was aspirated and replaced with 1 mL media containing a predetermined concentration of compound and incubated for 2 hours. After 2 hours, the media was aspirated, and the cells washed 2 times with cold PBS. Cells were lysed on ice, with 50 uL 1×CST lysis buffer+1 mM PMSF for 5 minutes. After 5 minutes, cells were removed using a scraper and transferred to cold 1.5 mL tubes, and centrifuged for 10 min, 4° C., 14,000×g. Supernatant was gently removed and snap frozen in liquid nitrogen. Protein concentration of the lysate was determined using Bradford Reagent (analyzed using SpectraMax M2E) and diluted to 1 mg/mL or pERK or 1.5 mg/mL for pMEK analysis. Cell lysates were then analyzed for phosphor-ERK/total-ERK levels on a Jess system (ProteinSimple; Cat #JS3346) using the following antibodies: tERK1/2 (CST 4696; 1:50) and pERK1/2 (CST 4377; 1:50). For pMEK/tMEK, the following antibodies were used: tMEK1/2 (CST 4694; 1:15) and pMEK1/2 (CST 9154; 1:400). All dilutions were in Milk-free antibody diluent.\nThe results of a phospho-ERK Screen in A549 (KRAS G12S) study is described in Table 7, 7A, 7B, and 8 below."}, "[8]": {"assay": "Metabolite ID study, six species hepatocytes", "type": "in vitro ADME", "details": "hepatocyte incubations, T=60 min", "procedure": "as §1, §2, §3, §5\nPrimary metabolite shown for each species in bold font. Several masses found were also present in incubations with compound in buffer and were considered not to be metabolites."}, "[9]": {"details": "athymic BALB/c nude or BALB/c, iv, 25 mg/kg, plasma, 25 mpk i.v."}, "[10]": {"details": "athymic BALB/c nude or BALB/c, po, 25 mg/kg, plasma, 25 mpk p.o."}, "[11]": {"details": "athymic BALB/c nude or BALB/c, po, 100 mg/kg, plasma, 100 mpk p.o."}, "[12]": {"details": "iv, 25 mg/kg, plasma, 25 mpk i.v."}, "[13]": {"details": "iv, 25 mg/kg, tumor, 25 mpk i.v."}, "[14]": {"details": "po, 25 mg/kg, plasma, 25 mpk p.o."}, "[15]": {"details": "po, 25 mg/kg, tumor, 25 mpk p.o."}, "[16]": {"details": "po, 100 mg/kg, plasma, 100 mpk p.o."}, "[17]": {"details": "po, 100 mg/kg, tumor, 100 mpk p.o."}}, "note": "Several values for one entry are separate records, joined by “and”; a condition that tells them apart may be missing. Identical values can stand only once.", "data": [{"smiles": "CNS(=O)(=O)Nc1cccc(Cc2c(CN(C)C)c3ccc(OC(=O)N(C)C)cc3oc2=O)c1F", "note": "[Compound 9]", "values": [{"measurement": "CRAF A549 pMEK:tMEK [100 nM; 2 hr]", "setting": "A549 pMEK:tMEK (CRAF)", "result": 0.47}, {"measurement": "% of total compound related material based on peak area, Rabbit", "setting": "[1]", "result": 93, "unit": "%"}, {"measurement": "% of total compound related material based on peak area, Monkey", "setting": "[2]", "result": 95, "unit": "%"}, {"measurement": "% of total compound related material based on peak area, Mouse", "setting": "[3]", "result": 97, "unit": "%"}, {"measurement": "half-life at 1 uM", "setting": "[4]", "result": 44, "unit": "min"}, {"measurement": "microsomal CLint at 1 uM", "setting": "[4]", "result": 32, "unit": "µL/min/mg"}, {"measurement": "Tmax", "setting": "[5]; [9]", "result": 30, "unit": "min"}, {"measurement": "half-life", "setting": "[5]; [9]", "result": 37.8, "unit": "min"}, {"measurement": "bioavailability", "setting": "[5]; [10]", "result": 75.6, "unit": "%"}, {"measurement": "half-life", "setting": "[5]; [10]", "result": 79.2, "unit": "min"}, {"measurement": "bioavailability", "setting": "[5]; [11]", "result": 192, "unit": "%"}, {"measurement": "half-life", "setting": "[5]; [11]", "result": 73.2, "unit": "min"}, {"measurement": "AUC(0-inf)", "setting": "[5]; [12]", "result": 5810, "unit": "ng·h/mL"}, {"measurement": "AUC(0-t)", "setting": "[5]; [12]", "result": 5810, "unit": "ng·h/mL"}, {"measurement": "Cmax", "setting": "[5]; [12]", "result": 6520, "unit": "ng/mL"}, {"measurement": "AUC(0-inf)", "setting": "[5]; [13]", "result": 8290, "unit": "ng·h/mL"}, {"measurement": "AUC(0-t)", "setting": "[5]; [13]", "result": 8280, "unit": "ng·h/mL"}, {"measurement": "Cmax", "setting": "[5]; [13]", "result": 7790, "unit": "ng/mL"}, {"measurement": "Tmax", "setting": "[5]; [13]", "result": 30, "unit": "min"}, {"measurement": "half-life", "setting": "[5]; [13]", "result": 208, "unit": "min"}, {"measurement": "AUC(0-inf)", "setting": "[5]; [14]", "result": 4400, "unit": "ng·h/mL"}, {"measurement": "AUC(0-t)", "setting": "[5]; [14]", "result": 4390, "unit": "ng·h/mL"}, {"measurement": "Cmax", "setting": "[5]; [14]", "result": 4640, "unit": "ng/mL"}, {"measurement": "Tmax", "setting": "[5]; [14]", "result": 30, "unit": "min"}, {"measurement": "AUC(0-inf)", "setting": "[5]; [15]", "result": 4900, "unit": "ng·h/mL"}, {"measurement": "AUC(0-t)", "setting": "[5]; [15]", "result": 4890, "unit": "ng·h/mL"}, {"measurement": "Cmax", "setting": "[5]; [15]", "result": 4580, "unit": "ng/mL"}, {"measurement": "Tmax", "setting": "[5]; [15]", "result": 30, "unit": "min"}, {"measurement": "bioavailability", "setting": "[5]; [15]", "result": 59.1, "unit": "%"}, {"measurement": "half-life", "setting": "[5]; [15]", "result": 76.8, "unit": "min"}, {"measurement": "AUC(0-inf)", "setting": "[5]; [16]", "result": 44600, "unit": "ng·h/mL"}, {"measurement": "AUC(0-t)", "setting": "[5]; [16]", "result": 44500, "unit": "ng·h/mL"}, {"measurement": "Cmax", "setting": "[5]; [16]", "result": 30100, "unit": "ng/mL"}, {"measurement": "Tmax", "setting": "[5]; [16]", "result": 30, "unit": "min"}, {"measurement": "AUC(0-inf)", "setting": "[5]; [17]", "result": 51700, "unit": "ng·h/mL"}, {"measurement": "AUC(0-t)", "setting": "[5]; [17]", "result": 51700, "unit": "ng·h/mL"}, {"measurement": "Cmax", "setting": "[5]; [17]", "result": 30300, "unit": "ng/mL"}, {"measurement": "Tmax", "setting": "[5]; [17]", "result": 30, "unit": "min"}, {"measurement": "bioavailability", "setting": "[5]; [17]", "result": 156, "unit": "%"}, {"measurement": "half-life", "setting": "[5]; [17]", "result": 118, "unit": "min"}, {"measurement": "IC50", "setting": "hERG Channel", "result": 26.2, "unit": "µM"}, {"measurement": "% of total compound related material based on peak area, Rat", "setting": "[6]", "result": 95, "unit": "%"}, {"measurement": "pERK: total ERK (% relative to vehicle)", "setting": "[7]", "result": "0.60% and 1.81%"}, {"measurement": "extent of metabolism in hepatocytes from different species", "setting": "[8]", "result": "not extensively metabolized"}]}]}
